The test system of data set [1] is V79 (Chinese Hamster Lung Fibroblasts) cells. Description: In vitro cytotoxicity assay (light EC50, Alamar blue). The following applies: Table 3 porphyrins, 24 h drug incubation, 532 nm, 1.25 J/cm^2, read-out: In Vitro EC50 Light. In kind it is cell-based. In short, it runs like this:
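V79 cells in phenol-free 5% FBS/DMEM exposed 24 h to photosensitizer at final 0.01–5.0 μM, six replicates, then washed and light-treated, with a dark plate as control. Survival by Alamar blue after 24 h dark incubation, read at 570/600 nm.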

The subject of data set [2] is normal skin of CD Hairless male rats. In kind it is in vivo, rat. The method in brief: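 Liposomal egg yolk phospholipid photosensitizer given as single i.v. tail-vein bolus at 1, 1.5 and 2 μmol/kg; skin spots irradiated with 532 nm laser (150 mW/cm^2, 150J, 1 cm) at 1, 6, 24, 48, 96 hrs post injection. Value is time of last observed skin response spot.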
Data set [3] relates to normal uninjured rat carotid arteries (medial and adventitial cell populations). As to the kind of experiment: In vivo rat carotid artery acellularity after PDT. Set-up: species or system Sprague Dawley rats. The following applies: for Max % rat Artery Accelularity: Table 3, drug dose 1 μMol, 50 J/cm^2, 3 days post treatment. The method in brief:
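Metallated photosensitizers light-activated in normal uninjured rat left common carotid via balloon catheter introduced through femoral arteriotomy under isoflurane; excitation 575 nm (Ga, Zn, Al, Sn) or 532 nm (Pt). Arteries harvested 3 days post-treatment, H&E-stained; medial and adventitial cell density assessed by light microscopy.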

Data set [4] can be described thus: Cardiovascular safety in pig coronary artery models (ECG, HR, BP). It is filed as in vivo. The following applies: doses exceeding 20 mg/Kg. The protocol:
Photosensitizers were administered systemically (at doses typically 2-3.5 mg/kg body weight, in a soybean phospholipid formulation) as a slow bolus injection in the ear vein. Drug treatments were followed (1-4 hr later) by endovascular light treatment (50-250 J/cm^2 fluence and 100-300 mW/cm^2 irradiance) in uninjured coronary (50-250 J/cm^2 fluence and 100-300 mW/cm^2 irradiance) and iliac (50-350 J/cm^2 fluence and 100-450 mW/cm^2 irradiance) arteries. In another set of experiments, animals also received balloon injuries in the coronary arteries at the time of PDT treatment. Angioplasty injuries in 2 coronary arteries were performed. Vital signs and cardiovascular parameters such as ECG, HR, BP, were monitored together with arterio-angiograms for measurements of vessel patency.

Where two headings read alike, the source gives them in different places.

With “Gallium Chloride Mesoporphyrin Dimethyl Ester [Example 1]”, the EC50 in data set [1] is 200 nM. In addition, in data set [2] (Table 3, time of last skin spot observed post injection, 1 μmol, 532 nm laser), the “Normal skin Response (1 μmol)” value came to 48 h. In addition, the “normal skin responses, time post drug injection” value in data set [2] (rats, drug dose 1 μmol/Kg) was 48 h. In data set [3], the “Max % rat Artery Accelularity” value is 95%. Also, in data set [3] (text b234, 1 μmol/Kg (printed 1 mol/Kg for 57)), the “acellularity (rat artery)” value stood at 95%. The “cardiotoxicity in pig coronary artery models” value (“cardiotoxicity” for short) in data set [4] was “no cardiotoxicity was observed”.

Take `CCC1=C(C)C2=[N+]3C1=Cc1c(C)c(CC)c4[n]1[Ga-2]31([Cl])[n]3c(c(C)c(CCC(=O)NC)c3=CC3=[N+]1C(=C4)C(C)=C3CCC(=O)NC)=C2` [Example 121, Gallium Chloride Mesoporphyrin N-methyl Amide]: the concentration for a half-maximal effect (EC50) in data set [1] worked out at 400 nM. In addition, the “Normal skin Response (1 μmol)” value in data set [2] (rat, in vivo) turned out to be 6 h. For the same compound, the “Max % rat Artery Accelularity” value in data set [3] is given as 60%. Also, the “cardiotoxicity” value in data set [4] is on record as “no cardiotoxicity was observed”.

In the case of `COC(=O)CCC1=C(C)c2cc3[n-]c(cc4nc(cc5[n-]c(cc1n2)c(CCC(=O)OC)c5C)C=C4C)cc3C.[Cl-].[Ga+3]` [Example 4, Gallium Chloride Deuteroporphyrin Dimethyl Ester], the 50% effective concentration (EC50) in data set [1] stood at 400 nM. The “Normal skin Response (1 μmol)” value in data set [2] (rat, in vivo) is 6 h. Also, in data set [3], the “Max % rat Artery Accelularity” value turned out to be 95%. Moreover, the “cardiotoxicity” value in data set [4] was “no cardiotoxicity was observed”.

The values above are taken from patent US6827926B2, “Metallotetrapyrrolic photosensitizing agents for use in photodynamic therapy” (Miravant Pharmaceuticals, Inc., priority 2001, dated 2004).
